Assay results taken from patent US9320682B2, “Tooth filling materials and dental varnish for inhibiting the formation of a biofilm of Streptococcus mutans and the production thereof” (VOCO Gmbh, priority 2012, dated 2016).

Key:
Type in all cases: cell-based
[1] = system: Streptococcus mutans UA159; assay: Colony-forming units of Streptococcus mutans biofilm after treatment with solutions of active substances (Example 8); details: for reduction in the colony-forming units: active substance in solution, final concentrations 0.25 μg/ml and 2.5 μg/ml, 20 hours anaerobic at 37° C.; for antimicrobial action in relation to Streptococcus mutans: solutions of the active substances at specific low concentrations (Example 8)
Description: In a THB nutrition medium, an over-night culture of Streptococcus mutans UA159 was cultivated anaerobically. That over-night culture was diluted to an optimum density (at 620 nm; OD620) of from 0.01 to 0.03 with THB (with addition of 0.5% (GN) of saccharose) so that a dilute bacterial suspension was obtained.
(§1) Stock solutions and corresponding diluted solutions of chlorohexidine, triclosan and carolacton were produced in methanol. […] of those solutions to be tested were introduced by pipette into microtitration plates; 9 parallel wells were used per substance and concentration. The methanol was evaporated (under a hood) and then 200 μl of the dilute bacterial suspension were added. The final concentrations of the active substances in the 200 μl of bacterial suspension were 0.25 μg/ml and 2.5 μg/ml. The plates were incubated anaerobically at 37° C. without agitation for 20 hours. Subsequently, the excess was removed by pipette, the biofilm was washed with a physiological cooking salt solution (0.85% of NaCl) and the biofilm was scraped off with a pipette. The biofilms from three parallel wells were suspended in 500 μl of PBS. From that biofilm suspension, a serial dilution in PBS was prepared. After each dilution step, vortexing was carried out for 1 minute. From each dilution, 50 μl was distributed three times on agar plates (TH medium). The plates were incubated for three days in the CO2 cupboard at 37° C., then the colony-forming units (CFU) were counted and the bacteria density in relation to […] of biofilm suspension was calculated.

[2] = system: Streptococcus mutans UA159; assay: Colony-forming units in the biofilm on tooth filling material test members (Example 9); details: triclosan and chlorohexidine at a hundred times the concentration of carolacton
Description: as §1
(§2) In addition, three tooth filling materials similar to example 2 were prepared, where carolacton was replaced with triclosan in a first comparison admixture, carolacton was replaced with chlorohexidine in a second comparison admixture and carolacton was omitted in a third comparison admixture (control).
(§3) From each of the tooth filling materials produced, by hardening the tooth filling material 10 dental test members were produced with a diameter of 7 mm and a height of 1 mm and adhesively bonded with a small quantity of the tooth filling material in a total of 40 wells of a 96-well microtitration plate of polystyrene (Greiner Bio-One, μ Clear Plate Black, Frickenhausen, Germany).
In a THB nutrition medium, an over-night culture of Streptococcus mutans UA159 was produced under anaerobic conditions. […]

[3] = system: Streptococcus mutans UA159; assay: Biofilm inhibition on hardened tooth filling material test members, LIVE/DEAD BacLight fluorescence (Example 9); details: for biofilm inhibition (in words): active substance in hardened tooth filling material, carolacton 25 μg/ml, triclosan and chlorohexidine 2500 μg/ml
Description: The admixture from example 2 was used as the tooth filling material according to the invention.
as §2, §3
In a THB nutrition medium, an over-night culture of Streptococcus mutans UA159 was produced under anaerobic conditions. The over-night culture obtained was diluted to an optimum density (at 620 nm; OD620) of from 0.01 to 0.03 with THB (with addition of 0.5% (G/V) of saccharose). Subsequently, 200 μl of the dilute over-night culture was introduced by pipette into the wells of the 96-well microtitration plate provided with the dental test members. The microtitration plate was subsequently incubated for 20 hours at 37° C. under anaerobic conditions in an incubator.
The determination of the biofilm inhibition was carried out with a LIVE/DEAD BacLight kit L13152 (Invitrogen, Molecular Probes, Inc. Eugene, Oreg., USA), taking note of the manufacturer's instructions. The kit comprises two dye solutions, propidium iodide and SYT09 which each discolour nucleic acids. The excesses of the biofilms in the individual wells of the 96-well microtitration plate were removed. In order to remove plankton-like or loosely bonded bacteria, the biofilm was carefully washed with 200 μl of a 0.85% NaCl solution, mixed with 200 μl of a 1:1 admixture of propidium iodide and SYT09 and subsequently left to stand for 15 minutes and at ambient temperature with light being excluded. The measurement of the fluorescence was carried out on a Wallac Victor3™ 1420Multilabel Counter (Perkin-Elmer Life Sciences) provided with detectors and filters for measuring the fluorescence at 630 nm (red) and 535 nm (green). The biofilm inhibition is given in percent as a quotient between the quotient of green and red fluorescence of the sample with the active substance (carolacton, chlorohexidine or triclosan) and the quotient of green and red fluorescence of the sample without any active substance (control).

## COC(CC(=O)O)C(C)C(=O)C(C)/C=C(\C)C1OC(=O)C(O)C(O)/C=C/C(C)CCCC1C (stereo not drawn) [carolacton]
[1]
  reduction in the colony-forming units: merely weakly reduces the number of colony-forming units
  antimicrobial action in relation to Streptococcus mutans: only has a weak antimicrobial action
[2]
  effect on number of CFU in the biofilm (in words): powerful inhibiting effect
[3]; Streptococcus mutans, UA159, active substance 25 μg/ml in hardened tooth filling material of example 2, 20 hours, green/red fluorescence quotient vs control
  inhibition at 25 µg/mL: 51%
[3]
  biofilm inhibition (in words): very good biofilm inhibition

## N=C(NCCCCCCNC(=N)NC(=N)Nc1ccc(Cl)cc1)NC(=N)Nc1ccc(Cl)cc1 [chlorohexidine]
[1]
  reduction in the colony-forming units: very powerful reduction in the colony-forming units
  antimicrobial action in relation to Streptococcus mutans: very powerful antimicrobial activity
[2]
  effect on number of CFU in the biofilm (in words): neither triclosan nor chlorohexidine, although used at a hundred times the concentration of carolacton, results in a powerful reduction of the number of CFU
[3]; active substance 2500 μg/ml in hardened tooth filling material similar to example 2, 20 hours, green/red fluorescence quotient vs control
  Biofilm inhibition [%]: 1%
[3]
  biofilm inhibition (in words): scarcely influence the biofilm formation

## Oc1cc(Cl)ccc1Oc1ccc(Cl)cc1Cl [triclosan]
[1]
  reduction in the colony-forming units: very powerful reduction in the colony-forming units
  antimicrobial action in relation to Streptococcus mutans: very powerful antimicrobial activity
[2]
  effect on number of CFU in the biofilm (in words): neither triclosan nor chlorohexidine, although used at a hundred times the concentration of carolacton, results in a powerful reduction of the number of CFU
[3]; Streptococcus mutans, UA159, 20 h, read-out: Biofilm inhibition [%]
  inhibition at 2500 µg/mL: 1%
[3]
  biofilm inhibition (in words): scarcely influence the biofilm formation
